{"source": "patent US20240174744A1", "about": "“METHODS OF TREATMENT USING PROTEIN BINDERS TO IRHOM2 EPITOPES” (SCIRHOM GMBH, priority 2021, published 2024)", "test_system": "PMA-induced release of HB-EGF from PBMCs from healthy donors", "test": "ELISA-based HB-EGF release assay, PBMCs from healthy donors", "type": "cell-based", "settings": "Homo sapiens, PBMC; recombinant murine antibodies 1 μg/ml; Batimastat 10 μM; PMA 25 ng/ml, 6 hours", "protocol": "In the following study, ELISA-based HB-EGF release assays were performed to analyze the inhibitory effects of the antibodies of the present disclosure on PMA-induced release of endogenous HB-EGF from primary human material obtained from healthy donors using peripheral blood mononuclear cells (PBMCs).\nIn brief, on day 1, Nunc black MaxiSorp® 96-well plates (Thermo Fisher Scientific, USA) were coated overnight with 100 μl per well of mouse anti-human HB-EGF capture antibody (provided as part of the DuoSet ELISA kit) at 4 μg/ml TBS at 4° C. On day 2, the capture antibody solution was removed and MaxiSorp® plates were blocked with 300 μl per well of TBS, 1% BSA at room temperature for 3 hours. […] Using an infinite M1000 (Tecan Group, Switzerland) microplate reader, the fluorescence of each well was collected at an excitation wavelength of 435 nm and an emission wavelength of 555 nm.", "data": [{"molecule": "CNC(=O)[C@H](Cc1ccccc1)NC(=O)[C@H](CC(C)C)[C@H](CSc1cccs1)C(=O)NO", "note": "[Batimastat]", "values": [{"measurement": "inhibition at 10 µM", "result": 94.9, "unit": "%"}]}]}
